Measurements reported in US8039635B2, “N-hydroxy-4-{5-[4-(5-isopropyl-2-methyl-1,3-thiazol-4-yl) phenoxy]pentoxy} benzamidine 2 ethansulfonic acid salt, process for the preparation thereof and pharmaceutical composition comprising the same” (Dong Wha Pharmaceutical Co., Ltd., priority 2007, dated 2011).
Structures can show the parent of a compound that is named as a salt.

Tests used:
[1] = Evaluation of stability under accelerated conditions, HPLC content; assay type: physicochemical; details: for change in content (stability in words): 60°C, 2 weeks; for Content: 60°C±2/75% RH±5, cap-opened vial
Experimental: The N-hydroxy-4-{5-[4-(5-isopropyl-2-methyl-1,3-thiazol-4-yl)phenoxy]pentoxy}benzamidine 2 ethansulfonic acid salt prepared in Example 1 was placed into a transparent glass vial, and stored at a cap-opened state under accelerated conditions (60° C.±2/75% RH±5) for a period of two weeks. Thereafter, the sample was analyzed by HPLC (Waters Module 1). The analysis was performed using a column packed with an octadecyl-silylated silica gel (Shiseido CAPCELL PAK C18, UG 120, Particle size 5 μm) under conditions: UV detection: 256 nm, injection volume: 10 μl, mobile-phase flow rate: 1.5 mL/min. The amount of the compound was calculated as an area percentage.

[2] = Pharmacokinetic evaluation (bioavailability) in SD rats; assay type: in vivo; details: 50 mg/kg
Experimental: The N-hydroxy-4-{5-[4-(5-isopropyl-2-methyl-1,3-thiazol-4-yl)phenoxy]pentoxy}benzamidine 2 ethansulfonic acid salt prepared in Example 1, and the N-hydroxy-4-{5-[4-(5-isopropyl-2-methyl-1,3-thiazol-4-yl)phenoxy]pentoxy}benzamidine 2 methansulfonic acid salt prepared in Comparative Example 2 were individually administered to SD rats in a dosage of 50 mg/kg. At given time points (0, 0.5, 1, 1.5, 2, 3, 5 and 8 hrs), rats were mildly anesthetized with diethyl ether, and blood samples were collected from the orbital venous plexus and stored at −20° C. until concentration analysis. The plasma samples were mixed with an equal volume of an internal standard substance solution (prepared by dissolving betamethasone in acetonitrile to give a final concentration of 30 μg/ml) with agitation for 1 min, and was centrifuged at 12,000 rpm for 10 min. Active components of the plasma samples were analyzed by HPLC (Model: Waters Module 1). From the obtained data, pharmacokinetic parameters [maximum blood concentration (Cmax) and area under the blood concentration-time curve (AUC)] were calculated by noncompartment analysis using the WinNonlin program (Version 1.0, Scientific Consulting Inc., USA).

[3] = Evaluation of release rate in buffer solution (pH 1.2), paddle 50 rpm; assay type: physicochemical; details: for release rate: buffer pH 1.2, paddle 50 rpm
Excerpt: (§1) The N-hydroxy-4-{5-[4-(5-isopropyl-2-methyl-1,3-thiazol-4-yl)phenoxy]pentoxy}benzamidine 2 ethansulfonic acid salt prepared in Example 1, the N-hydroxy-4-{5-[4-(5-isopropyl-2-methyl-1,3-thiazol-4-yl)phenoxy]pentoxy}benzamidine prepared in Comparative Example 1, and the N-hydroxy-4-{5-[4-(5-isopropyl-2-methyl-1,3-thiazol-4-yl)phenoxy]pentoxy}benzamidine 2 methansulfonic acid salt prepared in Comparative Example 2 were examined for release rate (%) in a buffer solution (pH 1.2) at a paddle rotation speed of 50 rpm.

[4] = Evaluation of solubility in solvents at room temperature; assay type: physicochemical
Excerpt: as §1, with “solubility (μg/ml)” for “release rate (%)”, “various solvents” for “a buffer solution (pH 1.2)”, “room temperature.” for “a paddle rotation speed of 50 rpm.”

[5] = system: ovalbumin-induced asthma; details: asthmatic mice, cited from earlier work
[6] = system: callus / bone fractures; details: rats, vs untreated control; cited from earlier work
[7] = dose-dependent, vs control group

## Cc1nc(-c2ccc(OCCCCCOc3ccc(C(=N)NO)cc3)cc2)c(C(C)C)s1 [2 Ethansulfonic acid salt, N-hydroxy-4-{5-[4-(5-isopropyl-2-methyl-1,3-thiazol-4-yl)phenoxy]pentoxy}benzamidine 2 ethansulfonic acid salt]
[1]
  change in content (stability in words): no change in content
[1]; listed as 2 ethanesulfonic acid salt
  change in content (stability in words): no change in its content
[1]; after 1 week
  Content: 99.88%
[1]; after 2 weeks
  Content: 99.86%
[1]; early stage
  Content: 100.00%
[2]; SD, rat, in vivo
  AUC: 10800 ± 833 ng·h/mL
  AUC, fold higher than 2 methanesulfonic acid salt: about 1.2 fold
  Cmax: 2360 ± 183 ng/mL
  Cmax, fold higher than 2 methanesulfonic acid salt: 1.3 fold
  Tmax: 2.13 ± 0.63 h
  Tmax, fold faster than 2 methanesulfonic acid salt: 1.4 fold
[3]; 5 min
  release rate: 14.8%
[3]; 10 min
  release rate: 20.5%
[3]; 15 min
  release rate: 24.2%
[3]; 30 min
  release rate: 31.3%
[3]; after 5 min
  release rate, fold higher than 2 methanesulfonic acid salt: about 2.8 fold
[3]; after 10 min
  release rate, fold higher than 2 methanesulfonic acid salt: about 1.4 fold
[3]; after 15 min
  release rate, fold higher than 2 methanesulfonic acid salt: about 1.2 fold
[4]; water
  solubility: 4420 µg/mL

## CS(=O)(=O)O.CS(=O)(=O)O.Cc1nc(-c2ccc(OCCCCCOc3ccc(C(=N)NO)cc3)cc2)c(C(C)C)s1 [2 Methansulfonic acid salt, N-hydroxy-4-{5-[4-(5-isopropyl-2-methyl-1,3-thiazol-4-yl)phenoxy]pentoxy}benzamidine 2 methansulfonic acid salt]
[2]; SD rats
  AUC (area under the blood concentration-time curve): 8970 ± 3090 ng·h/mL
  Cmax (maximum blood concentration): 1792 ± 912 ng/mL
  Tmax (time to reach maximum plasma concentration): 3.00 ± 1.63 h
[3]; 5 min
  release rate: 5.3%
[3]; 10 min
  release rate: 13.9%
[3]; 15 min
  release rate: 20.1%
[3]; 30 min
  release rate: 34.3%
[4]; distilled water, room temperature
  solubility: 3,535 μg/ml

## Cc1nc(-c2ccc(OCCCCCOc3ccc(C(=N)NO)cc3)cc2)c(C(C)C)s1 [free base, N-hydroxy-4-{5-[4-(5-isopropyl-2-methyl-1,3-thiazol-4-yl)phenoxy]pentoxy}benzamidine]
[5]; [7]
  number of eosinophils in bronchoalveolar lavage fluid: significantly decreased
  total number of leukocytes and number of eosinophils (peripheral blood): significantly decreased
[5]; oral, 18 days, vs control given sterile distilled water
  increase in lung weight: suppressed the increase in lung weight
[5]; vs control group
  alveolar area: significantly increased
[6]
  bone mineral content and mechanical strength of callus: significantly enhanced
  bone tissue density: significantly increased
  callus volume: significantly reduced
  content of connective and soft tissues in the callus tissue: significantly reduced
[3]; 5 min
  release rate: 1.2%
[3]; 10 min
  release rate: 3.5%
[3]; 15 min
  release rate: 7.9%
[3]; 30 min
  release rate: 21.3%
